Source: PubChem BioAssay (NCI)
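Where inhibition never reached the appropriate level, the endpoint shown equals the highest concentration tested. Otherwise, values were interpolated linearly from a five-concentration, 48-hour dose response in 96-well plates. GI50: concentration for 50% inhibition of growth. At the TGI there is no net growth.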

How the values were obtained:
Test in all cases: growth of human tumour cells (NCI), 48 h
COLO 205 colon = tested on: COLO 205 colon
UO-31 renal = tested on: UO-31 renal
CCRF-CEM leukemia = tested on: CCRF-CEM leukemia
BT-549 breast = tested on: BT-549 breast
SNB-19 CNS = tested on: SNB-19 CNS
SK-MEL-28 melanoma = tested on: SK-MEL-28 melanoma
SK-MEL-5 melanoma = tested on: SK-MEL-5 melanoma
MCF7 breast = tested on: MCF7 breast
NCI-H226 lung = tested on: NCI-H226 lung
NCI-H23 lung = tested on: NCI-H23 lung

SMILES | TGI (COLO 205 colon) [µM] | TGI (UO-31 renal) [µM] | TGI (CCRF-CEM leukemia) [µM] | TGI (BT-549 breast) [µM] | TGI (SNB-19 CNS) [µM] | TGI (SK-MEL-28 melanoma) [µM] | TGI (SK-MEL-5 melanoma) [µM] | TGI (MCF7 breast) [µM] | TGI (NCI-H226 lung) [µM] | TGI (NCI-H23 lung) [µM] | GI50 (COLO 205 colon) [µM] | GI50 (UO-31 renal) [µM] | GI50 (CCRF-CEM leukemia) [µM] | GI50 (BT-549 breast) [µM] | GI50 (SNB-19 CNS) [µM] | GI50 (SK-MEL-5 melanoma) [µM] | GI50 (MCF7 breast) [µM] | GI50 (NCI-H226 lung) [µM] | GI50 (NCI-H23 lung) [µM] | GI50 (SK-MEL-28 melanoma) [µM]
CCCn1cnc2c(SCC(=O)O)nc(N)nc21 | > 100 | > 100 | > 100 | > 100 | > 100 | > 100 | > 100 | > 100 | > 100 | > 100 | – | – | – | – | – | – | – | – | – | –
Cc1cc(Cl)ccc1OCC(=O)Nc1nc(N)nc(N)n1 | > 100 | > 100 | > 100 | > 100 | > 100 | > 100 | > 100 | > 100 | > 100 | > 100 | – | – | – | – | – | – | – | – | – | –
CCc1ccccc1NC(=O)/C=C/c1ccccc1 | > 100 | – | > 100 | > 100 | > 100 | > 100 | > 100 | > 100 | > 100 | > 100 | – | – | – | – | – | – | – | – | – | –
COc1ccc(C(=O)c2cc3c(N)c(C(=O)Nc4ccccc4)sc3nc2C)cc1 | > 100 | > 100 | > 100 | > 100 | > 100 | – | 10.6 | > 100 | > 100 | > 100 | 1.42 | 2.64 | 0.852 | 38.6 | 2.02 | 0.459 | 0.373 | 11.1 | 2.54 | –
CN(C)c1nc(=NCc2ccco2)ss1 | > 68.5 | 50.1 | 33.8 | 38.4 | > 80.4 | 46.4 | > 100 | 33.1 | > 91.5 | 58 | – | – | – | – | – | – | – | – | – | –
CCOc1ccc2c(c1)C(=O)c1c-2n(CCCBr)c(=O)c2cc([N+](=O)[O-])ccc12 | > 100 | 13.6 | > 100 | > 100 | > 100 | > 100 | 25.7 | 63.8 | > 100 | > 100 | 41.3 | 2.9 | 3.74 | 28.8 | 4.75 | 8.74 | 0.344 | 5.64 | 7.14 | 88.8
CCCCCCCC(=O)OCCCC1[C@]2(C)CC[C@@]3(C)C([C@H](C)CCC=C(C)C)CC[C@]3(C)C2CC[C@]12OC2(C)C (stereo partly drawn) | > 100 | > 100 | 69.1 | > 100 | 97.6 | > 100 | > 100 | > 100 | 92.3 | 61.7 | 39.7 | 31.9 | 28.4 | 88.6 | 34.5 | 33.9 | 34.1 | 22.8 | 23.1 | 42.4
Cc1cc(Nc2nc(C(=O)Nc3ccccc3)nc3ccccc23)n[nH]1 | > 25 | > 25 | > 25 | > 25 | > 25 | > 25 | > 25 | > 25 | > 25 | – | 14.4 | 1.3 | 4 | 15.7 | > 25 | 22.5 | 13 | 10 | – | > 25
C1=C/COCc2cc(ccc2OCCN2CCCC2)Nc2nccc(n2)-c2ccc(o2)COC/1 | 2.75 | 7.06 | 7.2 | 4.95 | 13.5 | 5.26 | 4.07 | 3.84 | 6.13 | 5.24 | 1.29 | 1.06 | 2.06 | 2.18 | 2.93 | 1.79 | 0.734 | 1.74 | 1.61 | 1.65
NCCCCC1NC(=O)C(CC(=O)O)NC(=O)CNC(=O)C(CCCN=C(N)N)NC(=O)C(N)CSSCC(C(=O)O)NC(=O)C(CC(=O)O)NC(=O)C2CCCN2C(=O)CNC1=O (stereo not drawn) | > 100 | > 100 | – | > 100 | > 100 | > 100 | > 100 | > 100 | > 100 | > 100 | > 100 | > 100 | – | > 100 | > 100 | > 100 | > 100 | > 100 | > 100 | > 100
Cc1ccc2nc(-c3ccc(OCC(=O)N=Nc4c(O)[nH]c5ccccc45)cc3)[nH]c2c1 | > 100 | > 100 | 11.3 | > 100 | 15.9 | 7 | 56.1 | 3.96 | 56.1 | 14.5 | 4.03 | 82.4 | 1.93 | 45.1 | 4.01 | 11.9 | 1.85 | 11.2 | 3.53 | 2.61
CC(C)c1nc(N(C)S(C)(=O)=O)nc(-c2ccc(F)cc2)c1/C=C/[C@@H](O)C[C@@H](O)CC(=O)O | > 100 | > 100 | > 100 | > 100 | > 100 | > 100 | > 100 | > 100 | > 100 | > 100 | > 100 | > 100 | > 100 | > 100 | 48.2 | 52.7 | > 100 | > 100 | > 100 | > 100
c1cc(-c2nnc(SSc3ncnc4nc[nH]c34)o2)ccn1 | 23.8 | > 100 | > 100 | > 100 | > 100 | > 100 | > 100 | > 100 | > 100 | > 100 | 3.3 | 0.742 | 1.24 | 9.47 | 78.4 | 3.46 | 0.419 | 4.63 | 2.73 | 43.7
C#CCNC(=S)N/N=C(\C)c1ccccn1 | > 100 | > 100 | > 100 | > 100 | > 100 | > 100 | 2.7 | > 100 | 3.33 | > 100 | 0.184 | 0.333 | 0.0677 | 0.618 | 3.43 | 0.617 | 0.0792 | 0.406 | 0.208 | 2.32
